Where two headings read alike, the source gives them in different places.

For assay [1], the system named is Influenza A/WSN/33 (H1N1) virus. Description: In vitro anti-influenza virus assay (neutralization test), cytopathic effect on MDCK cells. Format: cell-based.
Assay [2] concerns Influenza A/TW/785/05 (H1N1). Description: Anti-influenza CPE neutralization test on MDCK cells. Format: cell-based. The conditions noted are these: Influenza A virus. On the procedure:
(§1) Anti-influenza activities of the coumarin compounds were evaluated by measuring the ability of a test compound to inhibit the cytopathic effect induced by an influenza virus on MDCK cells. The 96-well tissue culture plates were seeded with 200 μL of MDCK cells at a concentration of 1.1×10^5 cells/mL in DMEM with 10% fetal bovine serum (FBS). The plates were incubated for 24-30 h at 37° C. and were used at about 90% confluency. Influenza A/WSN/33 (H1N1) virus (100 TCID50) was added to the cells and incubated at 35° C. for 1 h. After adsorption, the infected cell plates were overlaid with 50 μL of DMEM plus 2% FBS and a test compound with different concentrations. The plate was incubated at 35° C. for 72 h. At the end of incubation, the plates were fixed by the addition of 100 μL of 4% formaldehyde for 1 h at room temperature. After the removal of formaldehyde, the plates were stained with 0.1% crystal violet for 15 min at room temperature. The plates were washed and dried, and the density of the well was measured at 570 nm. The concentration required for a test compound to reduce the virus-induced cytopathic effect (CPE) by 50% relative to the virus control was expressed as IC50.
(§2) Compounds 1 and 95 were also tested on various influenza virus strains. Amantadine or Relenza was also tested for comparison. IC50 is defined as the concentration required for a test compound to reduce the virus-induced cytopathic effect (CPE) by 50% relative to the virus control.

The subject of assay [3] is Influenza A/TW/83/05 (H3N2). Described as above. Format: cell-based. The conditions noted are these: Influenza A virus. On the procedure: as §1, §2
For assay [4], the system named is Influenza A/Udorn/72 (H3N2). Described as above. Format: cell-based. The conditions noted are these: Influenza A virus. As for the experimental part: as §1, §2
The subject of a further assay is Influenza B/TW/70325/05. Described as above. In kind it is cell-based. The conditions noted are these: Influenza B virus, Influenza B/TW/70325/05, CPE. On the procedure:
as §1, §2

Another assay has as its system Influenza B/TW/710/05. The assay is described as above. In kind it is cell-based. The conditions noted are these: Influenza B virus, Influenza B/TW/710/05, CPE. As for the experimental part:
as §1, §2

The test system of another assay is Influenza B/TW/99/07. The assay is described as above. Format: cell-based. The conditions noted are these: Influenza B virus, Influenza B/TW/99/07, CPE. On the procedure:
as §1, §2

A further assay has as its system Enterovirus 71 (4643). The assay is described as follows: In vitro EV 71 neutralization assay, cytopathic effect on RD cells. In kind it is cell-based. The conditions noted are these: Enterovirus A; Enterovirus 71 (4643), RD cells, CPE; read-out: IC50. As for the experimental part: (§3) This assay measured the ability of a test compound to inhibit the cytopathic effect induced by a picornavirus (EV71, Coxsackie Virus B3, or human rhinovirus 2) on RD cells. The method used for this assay is described in Chang et al., J Med Chem, 2005, 48(10), 3522-3535. More specifically, 96-well tissue culture plates were seeded with 200 μL of RD cells at a concentration of 3×10^5 cells/mL in DMEM with 10% FBS. The plates were incubated for 24-30 h at 37° C. and were used at about 90% confluency. Virus (100 TCID50) mixed with different concentrations of a test compound was added to the cells and incubated at 37° C. for 1 h. After adsorption, the infected cell plates were overlaid with 50 μL of DMEM plus 5% FBS and 2% DMSO. The plate was wrapped in Parafilm and incubated at 37° C. for 64 h. At the end of incubation, the plates were fixed by the addition of 100 μL of 0.5% glutaraldehyde for 1 h at room temperature. After the removal of glutaraldehyde, the plates were stained with 0.1% crystal violet for 15 min at room temperature. The plates were washed and dried, and the density of the well was measured at 570 nm. The concentration required for a test compound to reduce the virus-induced cytopathic effect (CPE) by 50% relative to the virus control is expressed as IC50.
For orientation: Protection from cytopathic effect is a common read-out in antiviral testing.

Another assay relates to Coxsackie B virus 3. Description: In vitro Coxsackie Virus B3 neutralization assay, cytopathic effect on RD cells. Format: cell-based. The conditions noted are these: Coxsackie B virus 3, RD cells, CPE. On the procedure:
as §3

A further assay deals with Human rhinovirus 2. The assay is described as follows: In vitro human rhinovirus 2 neutralization assay, cytopathic effect on RD cells. The conditions noted are these: Rhinovirus A; Human rhinovirus 2, RD cells, CPE; read-out: IC50. Format: cell-based. As for the experimental part:
as §3

Another assay deals with HSV-1. Description: In vitro HSV-1 plaque reduction assay in Vero cells (Example 5). In kind it is cell-based. The conditions noted are these: Human alphaherpesvirus 1; HSV-1, Vero cells, 72 h; read-out: EC50 (concentration reducing 50% of plaque numbers). On the procedure: The method used for this assay is described in Su et al., Antiviral Res., 2008, 79(1), 62-70.
Vero cells were seeded onto a 96-well culture plate at a concentration of 10^4 cells per well one day before infection. Next day, medium was removed and 10 plaque forming unit (pfu) HSV-1 suspension per well were added and incubated at 37° C. with 5% CO2 for 1 h. The infected cell monolayer was then washed with phosphate buffered saline (PBS) and cultured in maintenance medium containing 1 μM of compounds. After 72 h of incubation at 37° C., cell monolayer was fixed with 10% formalin and stained with 1% crystal violet.
Plaque assays were performed with monolayer cultures of Vero cells in 24-well culture plates. For plaque reduction assay, cell monolayer was infected with virus (50 pfu/well) and incubated at 37° C. with 5% CO2 for 1 h. The infected cell monolayer was then washed three times with PBS and overlaid with overlapping solution (maintenance medium containing 1% methylcellulose and various concentrations of indicated compounds). After 72 h of incubation at 37° C., cell monolayer was fixed with 10% formalin and stained with 1% crystal violet. […] The minimal concentration of compounds required to reduce 50% of plaque numbers (EC50) was calculated by regression analysis of the dose-response curves generated from plaque assays.
In general terms: Plaques are areas of infected cells; plaque reduction assays count them against a control.

Another assay has as its system EBV. The assay is described as follows: In vitro EBV assay, EBV reactivation in NA cells by anti-EBV-EAD immunofluorescence. Format: cell-based, Epstein-Barr virus (EBV). The conditions noted are these: human gammaherpesvirus 4; EBV reactivation by TPA/SB in NA cells, compound added 24 h before; read-out: EC50 (concentration reducing 50% of virus replication numbers). As for the experimental part: The method used for this assay is described in Chang et al., J Virol, 1999, 73, 8857-8866 and Tsai et al., J Virol Methods, 1991, 33, 47-52.
To suppress EBV reactivation, a test compound was added to the NA cell culture medium at indicated final concentration 24 h prior to 12-o-tetradecanoylphorbol-13-acetate (TPA)/sodium n-butyrate (SB) treatment. After treatment, the cells were fixed and assayed by anti-EBV-EAD immunofluorescence for detection of EBV reactivation. […] NA cells were subjected to treatment with the test compound 24 h prior to the addition of TPA/SB. […] Cells were stained with anti-EBV EAD antibody. […] The minimal concentration of the test compound required to reduce 50% of virus replication numbers (EC50) was calculated from regression analysis of the dose-response curves obtained from anti-EBV-EAD immunofluorescence.

The next assay concerns HIV-1. The assay is described as follows: Inhibition of HIV-1 replication in peripheral blood mononuclear cells, viral RNA by real-time PCR. The conditions noted are these: Human immunodeficiency virus 1, PBMC. In general terms: In qPCR the cycle at which signal appears reflects the starting amount.
Assay [5] deals with Influenza A/TW/141/04 (H1N1). The assay is described as follows: Anti-influenza CPE neutralization test on MDCK cells. The conditions noted are these: Influenza A virus. In kind it is cell-based. As for the experimental part:
as §1, §2

Assay [6] relates to Influenza A/TW/3446/04 (H3N2). The assay is described as above. The conditions noted are these: Influenza A virus. In kind it is cell-based. On the procedure:
as §1, §2

The mark [7] stands for this setting: MDCK, CPE, Table 2, read-out: IC50.

Experimental for HIV-1: Equal amounts of wild-type and mutant viruses were used to infect 5×10^4 peripheral blood mononuclear cells (PBMC) in 1.5 mL medium containing DMSO or various concentrations of a test compound. A half-milliliter of the culture medium was collected from each culture at days 3, 5, and 7. Viral RNA was extracted from the collected culture supernatants and the viral titers (copies/mL) were determined by real-time PCR. The percentage of inhibition was calculated as [100−(VD/VC)]×100%, where VD and VC refer to the virus titers in the presence and absence of the test compound, respectively.

Consider `Cc1cc(=O)oc2c1ccc1oc(C(=O)c3ccccc3)c(-c3ccccc3)c12` [Compound 1, 8-benzoyl-4-methyl-9-phenyl-furo[2,3-h]chromen-2-one], for which the IC50 is 10 to 999 nM in [1] (MDCK cells, 72 h, lower bound (10 nM), upper in μM, read-out: IC50 (concentration reducing virus-induced cytopathic effect by 50%)); 119 ± 43 nM in [1] (setting [7]); 0.052 ± 0.001 µM in [2]; 0.057 ± 0.006 µM in assay [3]; 0.347 ± 0.188 µM in [4]; 0.067 ± 0.002 µM in the assay on Influenza B/TW/70325/05. In addition, the IC50 in the assay with Influenza B/TW/710/05 turned out to be 0.102 ± 0.02 µM; in the assay with Influenza B/TW/99/07, 0.089 ± 0.014 µM; in the assay on Enterovirus 71 (4643), 0.002 ± 0.001 µM; in the assay on Coxsackie B virus 3, 0.005 ± 0.001 µM; in the assay on Human rhinovirus 2, 0.012 ± 0.001 µM. The EC50 in the assay on HSV-1 is about 0.5 µM; in the assay with EBV it was under 0.5 µM. Also, the inhibition (in general, the relative decrease from the control value, in per cent) at 0.1 µM in the assay on HIV-1 (72 h, read-out: Inhibition (%) Day 3) came out at 2%; with HIV-1 (120 h, read-out: Inhibition (%) Day 5) it was 82%; in the assay on HIV-1 (168 h, read-out: Inhibition (%) Day 7), 91%.

For the compound `CC(=O)N[C@H]1[C@H]([C@H](O)[C@H](O)CO)OC(C(=O)O)=C[C@@H]1N=C(N)N` [Relenza, Zanamivir, reference compound], the IC50 in assay [1] (setting [7]) came to 62 ± 18 nM; in assay [5] it was 0.35 ± 0.14 µM; in [6] it was 0.03 ± 0.01 µM; in assay [2] it was 1.06 ± 0.982 µM; in assay [3], 0.918 ± 0.026 µM; in [4], 0.67 ± 0.232 µM. Moreover, the IC50 in the assay on Influenza B/TW/70325/05 is 0.02 ± 0.01 µM; with Influenza B/TW/710/05, 0.03 ± 0.019 µM; in the assay with Influenza B/TW/99/07, 0.099 ± 0.009 µM; in the assay on Enterovirus 71 (4643) it was over 25 µM; in the assay on Coxsackie B virus 3, over 25 µM; with Human rhinovirus 2 it was over 25 µM.

(Values after US20090312406A1, “COUMARIN COMPOUNDS AND THEIR USE FOR TREATING VIRAL INFECTION” (priority 2008, published 2009).)
